The assay deals with Testpflanzen. Description: Post-emergence test (greenhouse). The assay is classed as in vivo. As to conditions: post-emergence spray on test plants 5 - 15 cm high, 1000 l Wasser/ha; rated after three weeks as % Schädigung versus untreated control (0 % = keine Wirkung, 100 % = totale Vernichtung); application rates and plant species not given. The text has this:
Post-emergence-Test (Gewächshaus) • Lösungsmittel: 5 Gewichtsteile Aceton • Emulgator: 1 Gewichtsteil Alkylarylpolyglykolether
Zur Herstellung einer zweckmäßigen Wirkstoffzubereitung vermischt man 1 Gewichtsteil Wirkstoff mit den angegebenen Menge Lösungsmittel, gibt die angegebene Menge Emulgator zu und verdünnt das Konzentrat mit Wasser auf die gewünschte Konzentration.
Mit der Wirkstoffzubereitung spritzt man Testpflanzen, welche eine Höhe von 5 - 15 cm haben so, daß die jeweils gewünschten Wirkstoffmengen pro Flächeneinheit ausgebracht werden. Die Konzentration der Spritzbrühe wird so gewählt, daß in 1000 I Wasser/ha die jeweils gewünschten Wirkstoffmengen ausgebracht werden. Nach drei Wochen wird der Schädigungsgrad der Pflanzen bonitiert in % Schädigung im Vergleich zur Entwicklung der unbehandelten Kontrolle.
Es bedeuten: • 0 % = keine Wirkung (wie unbehandelte Kontrolle) • 100 % = totale Vernichtung

Regarding `CCOc1cc(-c2ccccc2)nc(-c2cccc(CC)c2)c1` [Beispiel 2, 4-Ethoxy-2-(3-ethylphenyl)-6-phenyl-pyridin], the “Wirksamkeit und Nutzpflanzenselektivität” value was “sehr gute Wirksamkeit und Nutzpflanzenselektivität”.
